Source: patent US5500430A, “Amidic derivatives of glutamic, aspartic and 2-amino adipic acids, a process for preparing same, and anti-gastrin composition containing the derivatives” (Rotta Research Laboratorium S.p.A., priority 1990, dated 1996)
Read-outs that look alike come from different tables or passages of the source. One block for each compound: values may come before it.

Columns and labels:
[1] = test system: transplantable mouse colic tumour; conditions: Winsell et al., Surgical Forum, 33, 384 (1982); cited from earlier work
[2] = test system: fundic and colic mucosae; conditions: rats; cited from earlier work
[3] = test system: fundic mucosa; assay: Fundic mucosa hyperplasia induced by pentagastrin in mice; assay type: in vivo; conditions: 21 days
Source text: (§1) Inhibitory effect on the rate of growth of tumorous colic cells induced by pentagastrin
(§2) Gastrin has a trophic effect on the digestive epithelium.
(§3) Upon the basis of this premise, it was wished to investigate whether the gastrin-specific antagonists of the invention could antagonise the growth of experimentally-induced gastrointestinal tumours.
(§4) Male mice weighing 20-25 g were inoculated subcutaneously in the interscapular region with a suspension of 8×10^4 tumour cells of a mouse colic adenocarcinoma.
(§5) After 21 days, the animals were killed and the fundic mucosa and the tumours were removed, weighed and extracted to determine the DNA.

[4] = test system: mouse colic adenocarcinoma; assay: Colic tumorous growth induced by pentagastrin in mice; assay type: in vivo; conditions: 21 days
Source text: as §1, §2, §3, §4, §5

[5] = molecular target: T1, gastrin receptor sites on the cerebral cortex membranes of mice (Mus musculus, UniProt P56481); assay: Inhibition of the binding of pentagastrin to mouse cortical membranes
T1 construct: Mouse cortical tissue; from tissue; host or cells: mouse cerebral cortex membranes
T1 sequence (P56481 1-453): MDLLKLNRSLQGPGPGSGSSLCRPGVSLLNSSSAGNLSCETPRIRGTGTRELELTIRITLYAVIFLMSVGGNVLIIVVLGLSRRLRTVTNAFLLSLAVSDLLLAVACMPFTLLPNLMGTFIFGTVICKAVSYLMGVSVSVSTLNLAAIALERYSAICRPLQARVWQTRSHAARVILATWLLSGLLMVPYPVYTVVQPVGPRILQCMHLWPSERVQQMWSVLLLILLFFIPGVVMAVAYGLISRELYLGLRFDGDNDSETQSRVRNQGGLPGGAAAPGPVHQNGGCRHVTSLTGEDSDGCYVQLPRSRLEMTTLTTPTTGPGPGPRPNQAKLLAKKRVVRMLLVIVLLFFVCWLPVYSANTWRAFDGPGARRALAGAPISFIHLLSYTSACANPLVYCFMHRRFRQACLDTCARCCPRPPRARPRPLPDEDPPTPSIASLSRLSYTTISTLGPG
Source text: Tests on binding to cerebral cortex membranes of mice
The capacities of some of the compounds of the invention to inhibit the binding of pentagastrin to the gastrin receptor sites on the cerebral cortex membranes of mice was to be evaluated. Pentagastrin tritiate[beta-alanyl-3-3H(N)] was used as the ligand.
Mouse cortical tissue Was homogenised cold in 20 volumes of tris buffer (pH 7.7). After washing and centrifuging, the final pellet was resuspended in 20 volumes of binding buffer containing, inter alia, TRIS, BSA and Bacitracin. 0.4 ml of the membrane thus obtained were then incubated with a radioactive tracer and the compounds under test for 40 minutes at 37° C.
After the supernatant liquid had been removed by centrifuging, the radioactivity associated with the pellet was determined with a liquid scintillator (a beta-counter). The specific binding was the difference between the binding in the absence and in the presence of 10^-5M pentagastrin.

[6] = test system: gastric acid secretion induced by pentagastrin; assay: Antisecretive activity in conscious dogs carrying gastric fistulae; assay type: in vivo, dogs (beagles); conditions: for ED50: Canis lupus familiaris, iv, read-out: ID50 (the source's name)
Method: Antisecretive activity in conscious dogs
Male beagles weighing about 10 Kg were used and carried gastric fistulae at the level of the greater curvature, connected near the antral region, steel cannulae 5 cm long and 2 cm wide being inserted for collecting the gastric juices externally. After a period of about one month to recover from the operation, and after suitable conditioning, the animals were treated with pentagastrin at a dose of 3 mcg/Kg/h. The Stimulant, dissolved in a physiological solution, was perfused into the femoral vein for 180 minutes at a rate of 1.9 ml/h. After perfusion for 60 minutes (the basal stimulation) the product under test, dissolved in a physiological solution (1 ml/Kg), was administered in a bolus into the contra-lateral vein and, at the same time, the perfusion of the stimulant continued for a further 120 minutes. The acid secretion was recorded continuously as a function of time.
The activity of the product was evaluated as the percentage reduction in the secreted acidity after the administration of the product compared with the base acidity measured during the first 60 minutes of collection during which only the pentagastrin was present, for each of the periods 0-60 and 60-120 minutes after the product had been administered in a bolus.
Different doses of the compounds (C-1 and C-5) tested were administered so that an ID50, that is the dose (in mg/Kg I.V.) capable of inhibiting the effect of the pentagastrin by 50% could be calculated.
The results obtained are given in the following table (Tab. 2) in which the % variations from the base (the mean ± standard deviations calculated on the values obtained from 4 animals) are given for the various doses administered under the stimulus of 3 mcg/Kg/h of pentagastrin, as well as the activities of the compounds, calculated as their ID50s, and the correlation coefficients of the regression lines calculated on the basis of the experimental data.

[7] = test system: guinea-pig gall bladder contracted with CCK-8; assay: Anticholecystokinin (anti-CCK) activity on guinea-pig gall bladders stimulated by CCK-8 in vitro; conditions: CCK-8 concentration 10 ng/ml, Krebs, 32° C.
Method: Anticholecystokinin (anti-cc, K) activity
In order to confirm the hypothesis that the molecular conformations of the compounds of the invention are suitable to provide them with antagonistic activity towards CCK as well as towards gastrin, the anticontracturant activities of some of the compounds of the invention were tested on guinea-pig gall bladders stimulated by CCK-8 in vitro.
A longitudinal strip of guinea-pig gall bladder was placed in a bath for isolated organs in the presence of Krebs at a temperature of 32° C. and oxygenated continuously with an oxygen-CO2 mixture (95-5 V/V).
The isometric contractions were detected by means of a force transducer and recorded.
The gall bladder was contracted with the use of a concentration of 10 ng/ml of CCK-8; the antagonistic activities of the compounds towards the contracturant effect of the CCK was determined with the use of different concentrations, thus determining the IC50 values, that is, the concentration of the compound in mcg/ml which can antagonise the contracturant effect of CCK by 50%.

[8] = test system: gastric acid secretion induced by pentagastrin; assay: Antisecretive activity in anaesthetised rats (pentagastrin-stimulated gastric acid secretion); assay type: in vivo
Method: Antisecretive activity in anaesthetised rats
Antisecretive activity in rats was determined with the use of male animals each weighing about 200 g, anaesthetised with urethane. Gastric secretion was stimulated with pentagastrin. The method of K. S. Lai (Gut 5, (1964), 327-341) was used, slightly modified.
After tracheotomy, cannulae were inserted in the oesophagus and the duodenum. A tepid solution. (37° C.) of 0.25 mM NaOH was perfused and passed through the stomach by means of a peristaltic pump at a constant flow rate of 1 ml/minute. After stabilisation for 20 minutes, the stimulating agent, dissolved in a physiological solution, was perfused for 120 minutes at a dose of 30 mcg/Kg/h in a volume of 0.95 ml/hour. After perfusion for 60 minutes (the basal stimulation), the product under test was administered as an intravenous bolus (I.V.) and the perfusion of the stimulant continued for a further 60 minutes. Acid secretion was recorded continuously as a function of time.
The activity of the product was evaluated as the percentage reduction in the secreted acidity after the administration of the product compared with the base acidity measured during the first 60 minutes of collection during which only the pentagastrin was present.
Different doses of the antagonist compounds tested were administered so that an ID50, that is, the dose (in mg/Kg I.V.) capable of inhibiting the effect of pentagastrin by 50%, could be calculated.
The results thus obtained are illustrated in the following table (Table 1) in which the activities of the compounds are expressed as the ID50s under the stimulus of 30 mcg/Kg/h of pentagastrin.

[9] = pentagastrin alone, 250 mcg/Kg twice a day

Compound: gastrin
- Effect on growth of a transplantable mouse colic tumour [1]: stimulates the growth of a transplantable mouse colic tumour
- Trophic effect of chronic administration [2]: causes hyperplasia of the fundic and colic mucosae

Compound: CSCC[C@H](NC(=O)[C@H](Cc1c[nH]c2ccccc12)NC(=O)CCNC(=O)OC(C)(C)C)C(=O)N[C@@H](CC(=O)O)C(=O)N[C@@H](Cc1ccccc1)C(N)=O [Pentagastrin, pentagastrin, reference compound]
- Trophic effect of chronic administration [2]: causes hyperplasia of the fundic and colic mucosae
- Effect on the fundic mucosa (in words) ([3]; mice): induces significant hyperplasia in the fundic mucosa
- Fundic DNA, Mean ± SD [3, 9]: 0.330 ± 0.05 mg
- Weight of the mucosa fundica, Mean ± SD [3, 9]: 32.0 ± 3.50 mg
- Effect on colic tumour weight and DNA content (in words) ([4]; mice): a significant increase in the weight of the colic tumour and the DNA content
- Tumorous DNA, Mean [4, 9]: 3.62 ± 0.50 mg
- Weight of the colic tumor, Mean ± SD [4, 9]: 657.0 ± 97.7 mg
- IC50 [5]: 2.5 nM

- Activity relative to the corresponding S enantiomer (times more active) ([5]; R series vs S enantiomers (C1 vs C32)): about 50 times
- IC50 ([5]; pentagastrin tritiate ligand, 40 minutes at 37° C., read-out: IC50, inhibition of the binding of pentagastrin): 470 nM
- Central activity relative to C2 ([5]; vs C2): only one third as active as C2 centrally
Compound: O=C(O)CC[C@@H](NC(=O)c1cccc(Cl)c1)C(=O)N1CCC2(CCCC2)CC1 [Compound C1]
- Variation % (Mean ± SD) from base (0-60 min) ([6]; 5 mg/Kg I.V., period 60-120 min): -18.2 ± 0.3%
- Variation % (Mean ± SD) from base (0-60 min) ([6]; 5 mg/Kg I.V., period 120-180 min): -22.8 ± 16.7%
- Variation % (Mean ± SD) from base (0-60 min) ([6]; 10 mg/Kg I.V., period 60-120 min): -38.9 ± 7.9%
- Variation % (Mean ± SD) from base (0-60 min) ([6]; 10 mg/Kg I.V., period 120-180 min): -14.3 ± 8.5%
- Variation % (Mean ± SD) from base (0-60 min) ([6]; 20 mg/Kg I.V., period 60-120 min): -49.5 ± 4.2%
- Variation % (Mean ± SD) from base (0-60 min) ([6]; 20 mg/Kg I.V., period 120-180 min): -26.1 ± 6.4%
- Variation % (Mean ± SD) from base (0-60 min) ([6]; 30 mg/Kg I.V., period 60-120 min): -61.1 ± 12.5%
- Variation % (Mean ± SD) from base (0-60 min) ([6]; 30 mg/Kg I.V., period 120-180 min): -56.7 ± 19.5%
- Variation % (Mean ± SD) from base (0-60 min) ([6]; 40 mg/Kg I.V., period 60-120 min): -63.4 ± 11.5%
- Variation % (Mean ± SD) from base (0-60 min) ([6]; 40 mg/Kg I.V., period 120-180 min): -43.4 ± 10.3%
- Variation % (Mean ± SD) from base (0-60 min) ([6]; 60 mg/Kg I.V., period 60-120 min): -74.2 ± 5.6%
- Variation % (Mean ± SD) from base (0-60 min) ([6]; 60 mg/Kg I.V., period 120-180 min): -79.9 ± 1.6%
- ED50 ([6]; 1 h, conscious dogs, I.V. bolus, period 60-120 min (first hour after administration)): 19.7 mg/kg
- ED50 ([6]; 2 h, conscious dogs, I.V. bolus, period 120-180 min (second hour after administration)): 31.5 mg/kg
- ID50 ([6]; conscious dogs, I.V. bolus, period 60-120 min (first hour after administration), 60 min): about 20 mg/Kg
- Inhibition of gastric acid secretion induced by pentagastrin in dogs (in words) ([6]; conscious dogs, first hour after bolus): potent inhibitors of gastric acid secretion induced by pentagastrin in dogs
- Anti-CCK activity IC50 [7]: 20 µg/mL
- ED50 ([8]; Rattus norvegicus, iv, anaesthetised male rats, pentagastrin 30 mcg/Kg/h, I.V. bolus, IN with bound, read-out: Antagonistic activity (ID50) towards gastric acid secretion induced by pentagastrin): 20 mg/kg
- Antigastrin activity (in words) ([8]; anaesthetised rats, pentagastrin 30 mcg/Kg/h): particularly favourable
- Activity on the peripheral gastrin (gastric secretion) receptor relative to compound C2 (times more active) ([8]; rats, vs C2): about 1.5 times
